Test system: microfilariae of Dirofilaria immitis
Test: Dirofilaria immitis, Microfilaria (DiMF) Assay
Assay type: cell-based
Settings: in vitro, stage (microfilaria or L4) not given, class A/B/C, read-out: D. immitis activity level (IC50 or MED)
Method: Heartworm Screen Dirofilaria immitis (D. immitis)
Dirofilaria immitis, Microfilaria (DiMF) Assay.
Compounds were dissolved and serially diluted in DMSO. Aliquots were spotted to the empty wells of assay plates. Media and microfilariae of Dirofilaria immitis were added to each well to dilute the test compounds to the desired concentrations. Assay plates were incubated for approximately 72 hours, and the larvae in each well were observed microscopically for drug effect. Microfilariae in each well were assessed subjectively for survival or paralysis, and results were reported as Minimum Effective Dose (MED).
Active and selective (DiL4 vs. DiMF potency) example compounds were subsequently evaluated in heartworm positive dog studies to correlate the in vitro selectivity profile with in vivo effects on circulating microfilariae.

Substance: 2-(3-(5-isoprop- oxypyridin-2- yl)-1,2,4- thiadiazol-5- ylamino)-N,N- dimethyl-5- (trifluoromethyl) nicotinamide [Compound 250]
- IC50: < 200 nM

From patent publication US11505548B2, “Heterocyclic compounds and their use for treatment of helminthic infections and diseases” (Celgene Corporation, priority 2019, dated 2022)
